Results on two compounds are retold here after patent EP0188169A1, “Bis-2-(4-hydroxy-2-isopropyl-5-methyl-phenoxy)-ethyl amines, process for their synthesis and pharmaceutical preparations containing them” (CORTIAL S.A., priority 1984, dated 1986).

Molecules are shown by their SMILES. Like-named read-outs stand apart in the source and are kept apart here.

For data set [1], the system named is tremblements musculaires produits chez la souris par l'administration de 0,5 mg/kg d'oxotrémorine. The data set is described as follows: Anticholinergic activity: oxotremorine-induced muscle tremors in mice. It counts as in vivo. Conditions: mouse, intraperitoneal, assessed one hour after administration, oxotremorine 0,5 mg/kg s.c. On the procedure: Activité anticholineraiaue : l'activité inhibitrice des produits de la présente invention vis à vis des tremblements musculaires produits chez la souris par l'administration de 0,5 mg/kg d'oxotrémorine par voie sous cutanée est déterminée. L'eftet est apprécié une heure après l'administration par voie intrapéritonéale des produits à tester; dans ces conditions, le COR28 35 est actif à la dose de 5mg/kg.

For data set [2], the system named is souris. The data set is described as follows: Acute toxicity (mortality, LD50) in mice. Type of data set: in vivo. Conditions: mouse.
The nature of data set [3]: Acute toxicity (mortality, LD50) in mice. Type of data set: in vivo. Conditions: in vivo, mouse.
Data set [4] relates to effet hypertenseur induit par 4.10-' mg/kg de phényléphrine. The data set is described as follows: Alpha-blocking activity in conscious normal rats: antagonism of the phenylephrine pressor effect (oral). It counts as in vivo, rat Sprague-Dawley normal vigile. From the text:
L'activité alphabloquante des produits selon la présente invention à également été déterminée chez le rat Sprague-Dawley normal vigile. Les veines jugulaires et les artères carotides des animaux sont cathétérisées sous anesthésie à l'éther. Après récupération d'une heure, la pression artérielle et la fréquence cardiaque sont enregistrées de façon continue. L'activité des produits à tester, administrés par voie oral, vis à vis de l'effet hypertenseur induit par 4.10-' mg/kg de phényléphrine est déterminée. On indique ci-après pour le COR28 35, en fonction de la dose administrée, l'activité maximale et le temps au bout duquel l'activité résiduelle est égale à 50% de l'activité maximale : 5 mg/kg, -38,75%, 66 mm; 10 mg/kg, --37.18%. 65 mn; 20 mg/kg, -66,37%, 66 mn.

Data set [5] deals with contractions induites par 2,5.10^-8 g/ml d'angiotensine I sur des préparations de segments d'iléon de cobaye. The data set is described as follows: Inhibition of angiotensin I-induced contractions of guinea-pig ileum segments. Type of data set: cell-based. Conditions: concentration 10-' g/ml; angiotensin I 2,5.10^-8 g/ml added 2 mn after the compound. From the text:
L'activité inhibitrice des produits de la présente invention vis à vis des contractions induites par 2,5.10^-8 g/ml d'angiotensine I sur des préparations de segments d'iléon de cobaye a été déterminée. L'angiotensine 1 est introduite dans le bain 2 mn après le produit à tester. Dans ces conditions, le COR28 35 entraine 51% d'inhibition des contractions à la concentration de 10-' g/ml.

For data set [6], the system named is souris rendue hy- percholestérotémique. The data set is described as follows: Hypolipidaemic activity in mice made hypercholesterolaemic by diet. Type of data set: in vivo. Conditions: mouse, oral, 200 mg/kg on days 6 and 7 of the diet. On the procedure: Activité hvoolioidémiante : chez la souris rendue hy- percholestérotémique par un régime riche en cholestérol et acide cholique pendant 7 jours, l'administration de 200 mg/kg de COR28 35 par voie orale, le 6° et le 7° jour, entraine une diminution du cholestérol sérique de 17% et une diminution des HP-bétalipoprotéines de 27% accompagnées d'une diminution du rapport VLDL + LDL/cholestérol.

Data set [7] relates to rats spontanément hypertendus. The data set is described as follows: Antihypertensive activity in spontaneously hypertensive rats (oral). It counts as in vivo. On the procedure:
Activité antihvoertensive : le produit à tester est administré par voie orale à des rats spontanément hypertendus. La pression artérielle est mesurée de façon indirecte en utilisant un sphygmomanomètre. Pour le COR28 35 administré à la dose de 100 mg/kg/j pendant 2 jours, la chute de pression maximale observée est de 14% le premier jour de traitement, 1 heure après le gavage. […] Administré dans les mêmes conditions à la dose de 50 mg/kg/j, la chute de pression artérielle maximale est de 15% 1 heure après gavage.

The test system of data set [8] is anaphylaxie passive cutanée. The data set is described as follows: Antiallergic activity: passive cutaneous anaphylaxis test. Type of data set: in vivo. Conditions: rat, oral. On the procedure: Activité antiallergigue : dans le test de l'anaphylaxie passive cutanée, le COR28 35 administré à 5 mg/kg par voie orale chez le rat entraine 60% d'activité. La prométhazine, administrée dans les mêmes conditions, entraine 53% d'activité à la dose de 10 mg/kg.

Data set [9] relates to hypertension induite par la phényléphrine. The data set is described as follows: Alpha-blocking activity in vivo: antagonism of phenylephrine-induced hypertension in pithed, bivagotomised rats (i.v.). Set-up: species or system rats amyélés et bivagotomisés. Conditions: for ED50: Rattus norvegicus, iv, read-out: DE50 (the source's name). From the text: ln vivo l'activité alpha bloquante est appréciée par la détermination de l'antagonisme de l'hypertension induite par la phényléphrine. Le produit à tester est administré par voie intraveineuse à des rats amyélés et bivagotomisés selon la technique de J.S.Gillespie et T.S. Muir (Br.J. Pharmac. Chemother., 1967, 30, 78-87). On indique ci-après pour le COR28 35, en fonction de la dose administrée, l'activité maximale et le temps au bout duquel l'activité résiduelle est égale à 50% de l'activité maximale : 4,42.10^-7 M/kg, --77,8%. 30 mn; 10^-6 M/kg, -94,5%, 55 mn; 3,53.10^-6 M/kg, -97,1%, 90 mn. La DE50 déterminée dans ces conditions pour le COR28 35 est de 1,48.10^-8 mole/kg au bout de 2 mn, 6,77.10^-7 mole/kg au bout de 30 mn et 1,87.10^-6 mole/kg au bout de 60 mn.

Data set [10] relates to contraction induite par 5.10^-7g/ml de sérotonine sur iléon isolé de cobaye. The data set is described as follows: Antiserotoninergic activity: serotonin-induced contraction of isolated guinea-pig ileum. Conditions: serotonin 5.10^-7g/ml; compound in contact 15 mn before the agonist; limits in brackets; read-out: CI50 (ou concentration inhibant 50% des contractions). It counts as cell-based. From the text:
Activité antisérotoninergigue : le COR28 35 inhibe in vitro la contraction induite par 5.10^-7g/ml de sérotonine sur iléon isolé de cobaye. L'effet maximum est obtenu quand le COR28 35 est mis au contact de l'organe isolé 15 mn avant d'introduire l'agoniste. La CI50 (ou concentration inhibant 50% des contractions) est dans ces conditions de 1,58.10^-7(1,00.10^-7-2,51.10^-7) mole/l.

Data set [11] concerns contractions de strips aortiques isolés de lapin induites par la noradrénaline. The data set is described as follows: Alpha-blocking activity in vitro: antagonism of noradrenaline-induced contractions of isolated rabbit aortic strips. It counts as cell-based. Conditions: Oryctolagus cuniculus, 1 h; noradrenaline 2.10^-6 mole/l; compound added 60 mn before the agonist; limits in brackets; read-out: CI50 (concentration inhibant 50% des contractions). From the text: Activité alohabloauante : In vitro l'activité alphabloquante est appréciée par la détermination de l'antagonisme des contractions de strips aortiques isolés de lapin induites par la noradrénaline employée à la concentration de 2.10^-6 mole/l selon une technique dérivée de celle de Furchgott et Bhadrakom (J. Pharmacol., 1953, 108, 129-43). L'activité maximale est obtenue quand le COR28 35 est introduit dans le bain 60 mn avant l'agoniste. La CI50 (concentration inhibant 50% des contractions) est égale dans ces conditions à 1,52.10-' (1,12.10^-7 -2,07.10-') mole/l.

For `Cc1cc(OCCN(C)CCOc2cc(C)c(O)cc2C(C)C)c(C(C)C)cc1O` [COR28 35], in [1], the “activité inhibitrice vis à vis des tremblements musculaires” value is “actif”. Also, the mortalité entry in data set [2] (intraperitoneal, 500 mg/kg) is on record as “aucune mortalité”; in [2] (oral, 300 mg/kg), “aucune mortalité”. Moreover, the mortality in data set [3] (ip, intraperitoneal, 1000 mg/kg, read-out: mortalité) stood at 40%. For the same compound, in data set [3] (intravenous, limits in brackets, read-out: DL50 (the source's name)), the LD50 is 53.5 mg/kg. Besides, the activité maximale is recorded as -38,75% in data set [4] (5 mg/kg); -66,37% in data set [4] (20 mg/kg); -97,1% in data set [9] (i.v., 3,53.10^-6 M/kg); -94,5% in data set [9] (i.v., 10^-6 M/kg). Moreover, the temps au bout duquel l'activité résiduelle est égale à 50% de l'activité maximale was determined as 66 min in data set [4] (5 mg/kg); 65 mn in data set [4] (10 mg/kg); 66 mn in [4] (20 mg/kg); 90 mn in data set [9] (i.v., 3,53.10^-6 M/kg); 30 mn in [9] (i.v., 4,42.10^-7 M/kg); 55 mn in data set [9] (i.v., 10^-6 M/kg). In addition, the inhibition des contractions in data set [5] stood at 51%. The “diminution des HP-bétalipoprotéines” value in [6] was 27%. In addition, the “diminution du cholestérol sérique” value in [6] is on record as 17%. In addition, the “rapport VLDL + LDL/cholestérol” value in data set [6] was “diminution”. The “chute de pression artérielle maximale” value in data set [7] (50 mg/kg/j, 1 hour after gavage) came out at 15%. Also, in [7] (100 mg/kg/j for 2 days, 6 hours after gavage on the second day), the “pression par rapport au lot témoin” value was “significativement abaissée”. For the same compound, the “chute de pression maximale observée” value in [7] (100 mg/kg/j for 2 days, first day of treatment, 1 hour after gavage) worked out at 14%. In addition, the activité in [8] (5 mg/kg) is 60%. The ED50 in [9] (2 min, i.v., after 2 mn) was 0.0148 µmol/kg; in data set [9] (0.5 h, i.v., after 30 mn) it was 0.677 µmol/kg; in data set [9] (1 h, i.v., after 60 mn) it was 1.87 µmol/kg. The IC50 in data set [10] was 0.158 µM; in [11], 0.152 µM.

Turning to `CC(CN1c2ccccc2Sc2ccccc21)N(C)C` (centres unmarked) [prométhazine, reference compound], the activité in [8] (10 mg/kg) turned out to be 53%.
